Assay results from PubChem BioAssay AID330 (DTP/NCI, 2004).
Values joined by “and” are separate entries in the source; they are usually repeats but may differ in a detail not shown here. Equal values may be shown once. Inconclusive results and toxic doses are left out.

Test system: P388 leukemia ip, CD2F1 mice, survival T/C
Experiment: NCI In Vivo Anticancer Drug Screen. Data for tumor model P388 Leukemia (intraperitoneal) in CD2F1 (CDF1) mice
Details: endpoint: median survival time, higher = longer survival
Method in brief: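 Mice carrying the transplanted tumor received test compound or vehicle. Survival was recorded in each group, and the value is the treated-group measurement divided by that of the vehicle-treated control group.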

[1] = dose: 50.0 mg/kg/injection, schedule: Q01DX009 (ip), vehicle: Klucel (hydroxypropylcellulose) (HPC)
[2] = dose: 200.0 mg/kg/injection, schedule: Q01DX009 (ip), vehicle: Klucel (hydroxypropylcellulose) (HPC)
[3] = dose: 50.0 mg/kg/injection, schedule: Q01DX005 (ip), vehicle: saline with Tween-80
[4] = dose: 100.0 mg/kg/injection, schedule: Q01DX005 (ip), vehicle: saline with Tween-80
[5] = dose: 200.0 mg/kg/injection, schedule: Q01DX005 (ip), vehicle: saline with Tween-80
[6] = dose: 100.0 mg/kg/injection, schedule: Q01DX001 (ip), vehicle: Klucel (hydroxypropylcellulose) (HPC)
[7] = dose: 200.0 mg/kg/injection, schedule: Q01DX001 (ip), vehicle: Klucel (hydroxypropylcellulose) (HPC)
[8] = dose: 400.0 mg/kg/injection, schedule: Q01DX001 (ip), vehicle: Klucel (hydroxypropylcellulose) (HPC)
[9] = dose: 25.0 mg/kg/injection, schedule: Q01DX009 (ip), vehicle: saline
[10] = dose: 50.0 mg/kg/injection, schedule: Q01DX009 (ip), vehicle: saline
[11] = dose: 100.0 mg/kg/injection, schedule: Q01DX009 (ip), vehicle: saline
[12] = dose: 12.5 mg/kg/injection, schedule: Q01DX009 (ip), vehicle: saline with Tween-80
[13] = dose: 25.0 mg/kg/injection, schedule: Q01DX009 (ip), vehicle: saline with Tween-80
[14] = dose: 50.0 mg/kg/injection, schedule: Q01DX009 (ip), vehicle: saline with Tween-80
[15] = dose: 100.0 mg/kg/injection, schedule: Q01DX009 (ip), vehicle: Klucel (hydroxypropylcellulose) (HPC)
[16] = dose: 50.0 mg/kg/injection, schedule: Q01DX005 (ip), vehicle: Klucel (hydroxypropylcellulose) (HPC)
[17] = dose: 100.0 mg/kg/injection, schedule: Q01DX005 (ip), vehicle: Klucel (hydroxypropylcellulose) (HPC)
[18] = dose: 200.0 mg/kg/injection, schedule: Q01DX005 (ip), vehicle: Klucel (hydroxypropylcellulose) (HPC)
[19] = dose: 25.0 mg/kg/injection, schedule: Q01DX005 (ip), vehicle: saline with Tween-80
[20] = dose: 60.0 mg/kg/injection, schedule: Q01DX005 (ip), vehicle: saline with Tween-80
[21] = dose: 120.0 mg/kg/injection, schedule: Q01DX005 (ip), vehicle: saline with Tween-80
[22] = dose: 240.0 mg/kg/injection, schedule: Q01DX005 (ip), vehicle: saline with Tween-80

In the case of `CCSc1nc2ccc(Nn3nnnc3-c3ccccc3)cc2s1`, the T/C (dose: 1.56 mg/kg/injection, schedule: Q01DX009 (ip), vehicle: Klucel (hydroxypropylcellulose) (HPC)) is reported as 105 % of control and 94 % of control, the T/C (dose: 3.12 mg/kg/injection, schedule: Q01DX009 (ip), vehicle: Klucel (hydroxypropylcellulose) (HPC)) is reported as 99 % of control and 100 % of control and the T/C (dose: 6.25 mg/kg/injection, schedule: Q01DX009 (ip), vehicle: Klucel (hydroxypropylcellulose) (HPC)) is reported as 93 % of control. The T/C (dose: 12.5 mg/kg/injection, schedule: Q01DX009 (ip), vehicle: Klucel (hydroxypropylcellulose) (HPC)) was 89 % of control and 95 % of control, the T/C [1] was 93 % of control and the T/C [2] was 92 % of control.

In the case of `COc1cc2c(cc1C)C1=C(C)C(=O)OC1[C@@H](O)[C@@H]2C` (stereo partly specified), the T/C (dose: 2.25 mg/kg/injection, schedule: Q01DX005 (ip), vehicle: Klucel (hydroxypropylcellulose) (HPC)) is reported as 104 % of control, the T/C (dose: 4.5 mg/kg/injection, schedule: Q01DX005 (ip), vehicle: Klucel (hydroxypropylcellulose) (HPC)) is reported as 101 % of control and the T/C (dose: 9.0 mg/kg/injection, schedule: Q01DX005 (ip), vehicle: Klucel (hydroxypropylcellulose) (HPC)) is reported as 101 % of control. For the same compound, the T/C (dose: 18.0 mg/kg/injection, schedule: Q01DX005 (ip), vehicle: Klucel (hydroxypropylcellulose) (HPC)) was 94 % of control.

`CCOC(=N)c1cn(C2OC(CO)C(O)C2O)c2ncnc(N)c12` (stereo unspecified) was tested, and the T/C (dose: 0.2 mg/kg/injection, schedule: Q01DX009 (ip), vehicle: saline) was 161 % of control, the T/C (dose: 0.25 mg/kg/injection, schedule: Q01DX009 (ip), vehicle: saline) was 150 % of control and the T/C (dose: 0.3 mg/kg/injection, schedule: Q01DX009 (ip), vehicle: saline) was 157 % of control. The T/C (dose: 0.5 mg/kg/injection, schedule: Q01DX009 (ip), vehicle: saline) was 159 % of control, the T/C (dose: 1.0 mg/kg/injection, schedule: Q01DX009 (ip), vehicle: saline) was 118 % of control and the T/C (dose: 2.0 mg/kg/injection, schedule: Q01DX009 (ip), vehicle: saline) was 90 % of control.

For `N=Nc1c(OC(=O)Nc2ccccc2)[nH]c2c(Cl)cc(Cl)cc12`, the T/C [3] was 100 % of control, the T/C [4] was 100 % of control and the T/C [5] was 98 % of control.

For `Cc1cc2cc(CN3C(=O)c4ccccc4C3=O)ccc2[nH]1`, the T/C [6] was 100 % of control, the T/C [7] was 93 % of control and the T/C [8] was 93 % of control.

With `Nc1nc2c(c(=O)[nH]1)CNC2=O` the T/C [9] was 112 % of control, the T/C [10] was 116 % of control and the T/C [11] was 113 % of control.

`Brc1ccc(C[N+]23CCN(CC2)CC3)cc1` was tested, and the T/C [12] was 95 % of control, the T/C [13] was 90 % of control and the T/C [14] was 90 % of control.

`O=C(Nc1ccc(C2=NCCN2)cc1)c1cc2cc(C3=NCCN3)ccc2o1` was tested, and the T/C (dose: 12.5 mg/kg/injection, schedule: Q04DX003 (ip), vehicle: suspension in saline) was 100 % of control, the T/C (dose: 25.0 mg/kg/injection, schedule: Q04DX003 (ip), vehicle: suspension in saline) was 102 % of control and the T/C (dose: 50.0 mg/kg/injection, schedule: Q04DX003 (ip), vehicle: suspension in saline) was 100 % of control.

In the case of `Oc1ccccc1N=Cc1cccs1`, the T/C [1] is reported as 109 % of control, the T/C [15] is reported as 105 % of control and the T/C [2] is reported as 124 % of control.

In the case of `CS/C(=N\N=C(/C)c1ccccn1)N/N=C(\SC)N(C)c1ccccc1`, the T/C [3] is reported as 108 % of control, the T/C [4] is reported as 104 % of control and the T/C [5] is reported as 110 % of control.

With `O=C1c2ccc(Cl)cc2-n2c1nc1ccccc1c2=O` the T/C [6] was 100 % of control, the T/C [7] was 93 % of control and the T/C [8] was 93 % of control.

With `O=C1C=CC(=Nc2ccc(N(CCCl)CCCl)cc2)C=C1` the T/C [1] was 89 % of control and the T/C [15] was 89 % of control.

In the case of `O=[N+]([O-])/C=C/c1cc2c(cc1Cl)OCO2`, the T/C [16] is reported as 107 % of control, the T/C [17] is reported as 111 % of control and the T/C [18] is reported as 95 % of control.

For `Cc1ccc(S(=O)(=O)OCC(O)C(O)COS(=O)(=O)c2ccc(C)cc2)cc1` (stereo unspecified), the T/C [10] was 97 % of control, the T/C [11] was 102 % of control and 113 % of control and the T/C (dose: 200.0 mg/kg/injection, schedule: Q01DX009 (ip), vehicle: saline) was 101 % of control and 95 % of control.

With `Cc1ccc(NC(=O)Oc2cc(C)c(Br)c(C)c2)cc1[N+](=O)[O-]` the T/C (dose: 12.5 mg/kg/injection, schedule: Q01DX009 (ip), vehicle: saline) was 95 % of control, the T/C [9] was 97 % of control and the T/C (dose: 50.0 mg/kg/injection, schedule: Q01DX009 (ip), vehicle: saline + alcohol) was 98 % of control. For the same compound, the T/C [10] was 101 % of control and the T/C (dose: 200.0 mg/kg/injection, schedule: Q01DX009 (ip), vehicle: saline + alcohol) was 100 % of control.

In the case of `O=C1C=CC(=O)C2=C1C1c3ccccc3C2c2ccccc21`, the T/C [16] is reported as 101 % of control and the T/C [17] is reported as 110 % of control.

For `O=C1c2ccccc2C(=O)N1CN1C(=O)c2ccccc2C1=O`, the T/C [13] was 95 % of control, the T/C [14] was 115 % of control and 90 % of control and the T/C (dose: 100.0 mg/kg/injection, schedule: Q01DX009 (ip), vehicle: saline with Tween-80) was 90 % of control. The T/C (dose: 200.0 mg/kg/injection, schedule: Q01DX009 (ip), vehicle: saline with Tween-80) was 100 % of control.

With `C[N+](C)(C)CC1CS1` (stereo unspecified) the T/C (dose: 4.5 mg/kg/injection, schedule: Q01DX009 (ip), vehicle: saline) was 104 % of control, the T/C (dose: 9.0 mg/kg/injection, schedule: Q01DX009 (ip), vehicle: saline) was 95 % of control and the T/C (dose: 18.0 mg/kg/injection, schedule: Q01DX009 (ip), vehicle: saline) was 100 % of control.

`O=[N+]([O-])c1cccc2c[n+](Cc3ccccc3)ccc12` was tested, and the T/C [12] was 113 % of control, the T/C [13] was 118 % of control and the T/C [14] was 107 % of control.

In the case of `Cc1ccc(C)c(C(=O)/C=C/C(=O)O)c1`, the T/C [19] is reported as 114 % of control and the T/C [3] is reported as 115 % of control and 117 % of control.

In the case of `COc1ccc(Cl)cc1NC(=O)c1ccco1`, the T/C [20] is reported as 96 % of control, the T/C [21] is reported as 99 % of control and the T/C [22] is reported as 98 % of control.

In the case of `O=CC(=O)c1ccc(O)cc1`, the T/C (dose: 18.8 mg/kg/injection, schedule: Q04DX003 (ip), vehicle: saline) is reported as 101 % of control, the T/C (dose: 37.5 mg/kg/injection, schedule: Q04DX003 (ip), vehicle: saline) is reported as 100 % of control and the T/C (dose: 75.0 mg/kg/injection, schedule: Q04DX003 (ip), vehicle: saline) is reported as 103 % of control. For the same compound, the T/C (dose: 150.0 mg/kg/injection, schedule: Q04DX003 (ip), vehicle: saline) was 109 % of control.

`Clc1ccccc1C(Nc1nc2ccccc2s1)Nc1nc2ccccc2s1` was tested, and the T/C [16] was 102 % of control, the T/C [17] was 99 % of control and the T/C [18] was 99 % of control.

With `O=C1NC(=O)C2(N1)C1CCCC2C(c2ccccc2)NC1c1ccccc1` (stereo unspecified) the T/C [20] was 96 % of control, the T/C [21] was 91 % of control and the T/C [22] was 90 % of control.

In the case of `O=S(=O)(O)C(I)S(=O)(=O)O`, the T/C [10] is reported as 91 % of control and the T/C [11] is reported as 94 % of control.

`Nc1c(C(=O)O)ccc2c1C(=O)c1ccccc1C2=O` was tested, and the T/C (dose: 6.25 mg/kg/injection, schedule: Q01DX005 (ip), vehicle: saline with Tween-80) was 96 % of control, the T/C (dose: 12.5 mg/kg/injection, schedule: Q01DX005 (ip), vehicle: saline with Tween-80) was 96 % of control and the T/C [19] was 98 % of control. For the same compound, the T/C [3] was 103 % of control.

`CC(=O)O[C@@H]1C[C@@H]2[C@@]3(C)CC[C@@H](OC(=O)CC(=O)O)C(C)(C)[C@@H]3CC[C@@]2(C)[C@]2(C)CCCC([C@]3(C)CC[C@H](C(C)(C)O)O3)[C@@H]12` (stereo partly specified) was tested, and the T/C (dose: 25.0 mg/kg/injection, schedule: Q01DX005 (ip), vehicle: Klucel (hydroxypropylcellulose) (HPC)) was 92 % of control, the T/C [16] was 99 % of control and the T/C [17] was 92 % of control and 97 % of control. For the same compound, the T/C [18] was 86 % of control and 98 % of control and the T/C (dose: 400.0 mg/kg/injection, schedule: Q01DX005 (ip), vehicle: Klucel (hydroxypropylcellulose) (HPC)) was 91 % of control.
